How the values were obtained:
[1] = system: bone marrow-derived macrophages; experiment: Macrophage efferocytosis of neutrophils; format: cell-based, mouse; conditions: macrophage treatment with TSP-1 1, 10 or 100 nM
Description: An efferocytosis assay kit (Cayman, 601770) was used following the manufacturer’s instructions. Neutrophils were labelled with CFSE and cultured in RPMI with 2% serum for 12 h to induce cell death. Bone marrow-derived macrophages cultured for 7 days were seeded at a density of 4 × 10^5 cells per well in a 6-well plate with DMEM/F12 containing 10% FBS and 100 units ml^−1 penicillin/streptomycin. Prior to the assay, macrophages were pre-treated with CGRP (1 or 20 nM) for 24 h. Macrophages were collected, labelled with CytoTell Blue, and then incubated with CFSE-labelled dead/dying neutrophils at different ratios (1:1, 1:2, and 1:4) at 37 °C for 15 min. The reaction was stopped by washing cells with ice-cold PBS containing 5% FBS and 1 mM EDTA. Cells were analysed with BD LSR Fortessa X-20 and FlowJo software (BD Biosciences). Macrophages were identified by CytoTell Blue-positive staining, and the efferocytosis index was calculated as the percentage of CFSE-positive cells in CytoTell Blue-labelled macrophages.
For the efferocytosis assay, cells were cultured with 1 nM CGRP immediately after transfection. After 24 h, cells were collected and co-cultured with dead or dying neutrophils.

[2] = system: bone marrow-derived macrophages; experiment: Macrophage cell death; format: cell-based, mouse; conditions: TSP-1 1, 10 or 100 nM, in the presence of inflammatory cytokines; dose-dependent
Description: Bone marrow cells from 8- to 12-week-old C57BL/6 J mice were flushed, filtered and cultured in conditioned medium (DMEM/F12 with 10% heat-inactivated FBS, 100 units ml^−1 penicillin/streptomycin, and 20% L929 fibroblasts-conditioned medium) at 37 °C with 5% CO2. After 7–9 days, differentiated macrophages were collected and seeded in 12-well or 6-well plates. The next day, cells were treated with CGRP (1 or 20 nM, Tocris Bioscience, 83651-90-5) for 20 min before exposure to mouse IL-1 (5 ng ml^−1) and TNF (50 ng ml^−1), IL-4 (2 ng ml^−1) and IL-13 (2 ng ml^−1), or IL-10 (2 ng ml^−1) (PeproTech Inc) for 24 or 72 h. Macrophages were detached with TrypLE (Gibco) containing 3 mM EDTA, stained with LIVE/DEAD Aqua dye for 20 min on ice, and incubated with blocking solution (10 μg ml^−1 TruStain FcX anti-CD16/32 (clone 93, BioLegend)) for 20 min before staining with antibodies for 30 min on ice. Antibodies from BioLegend included PE anti-CD11b (clone M1/70, 1 μg ml^−1), BV711 anti-F4/80 (clone BM8, 2 μg ml^−1), APC anti-CD80 (clone 16-10A1, 0.5 μg ml^−1) and PE-Cyanine7 anti-CD206 (clone C068C2, 1 μg ml^−1). […] After washing with Perm buffer and staining buffer, cells were analysed using BD LSR Fortessa X-20 and FlowJo software (BD Biosciences). […]

[3] = system: bone marrow-derived neutrophils; experiment: Neutrophil transwell migration; format: cell-based, mouse; conditions: TSP-1 1, 10 or 100 nM
Description: Bone marrow cells were flushed from femora and tibiae of C57BL/6 J mice (8- to 12-week-old) with HBSS without Ca^2+ and Mg^2+ containing 2% FBS and 1 mM EDTA. Cell suspension was passed through a 70-μm strainer. Next, EasySep Mouse Neutrophil Enrichment Kit or EasySep Mouse Monocyte Isolation Kit ([sequence] Technologies) was used to isolate neutrophils or monocytes according to the manufacturer’s instructions. Neutrophils were resuspended in RPMI containing 100 units ml^−1 penicillin/streptomycin and 10% FBS for cell migration assay and cell death assay or 2% FBS for efferocytosis.
Assays were conducted using 6.5-mm-diameter culture plate inserts (Corning) with 5-μm and 3-μm pore sizes for macrophages and neutrophils, respectively. Macrophages (1 × 10^5) or neutrophils (3 × 10^5) in migration media (DMEM/F12 with 0.25% BSA) were added to the inserts. The lower chambers contained migration buffer alone or chemoattractant (mouse CCL2 10 ng ml^−1 for macrophages or mouse CXCL1/KC 150 ng ml^−1 for neutrophils, PeproTech) with or without CGRP. […] For neutrophils, cells that migrated into the lower chamber were collected and counted using a haemocytometer. The data are presented as the fold change, calculated by dividing the number of cells that migrated in response to treatments by the number of cells that migrated spontaneously (migration media only).

[4] = system: bone marrow-isolated neutrophils; experiment: Neutrophil cell death; format: cell-based, mouse; conditions: TSP-1 1, 10 or 100 nM, in the presence of inflammatory cytokines; dose-dependent
[5] = system: bone marrow-derived macrophages; experiment: Macrophage transwell migration; format: cell-based, mouse; conditions: TSP-1 1, 10 or 100 nM
Description: Assays were conducted using 6.5-mm-diameter culture plate inserts (Corning) with 5-μm and 3-μm pore sizes for macrophages and neutrophils, respectively. Macrophages (1 × 10^5) or neutrophils (3 × 10^5) in migration media (DMEM/F12 with 0.25% BSA) were added to the inserts. The lower chambers contained migration buffer alone or chemoattractant (mouse CCL2 10 ng ml^−1 for macrophages or mouse CXCL1/KC 150 ng ml^−1 for neutrophils, PeproTech) with or without CGRP. Cells were allowed to migrate through the insert membrane for 3-4 h at 37 °C with 5% CO2. For macrophages, the inserts were then fixed with 4% paraformaldehyde, and cells on the upper side were removed. DAPI (1 μg ml^−1) was used to stain cells on the bottom side, and they were counted using a fluorescent microscope. […] The data are presented as the fold change, calculated by dividing the number of cells that migrated in response to treatments by the number of cells that migrated spontaneously (migration media only).
After 24 h, cells were collected for the migration assay.

[6] = system: Nav1.8^cre/Rosa26^DTA mice; experiment: Flow cytometry of injured skin and muscle, nociceptor-ablated mice; format: in vivo, mouse; conditions: TSP-1 total 10 μg
Description: Skin wounds were collected using an 8-mm biopsy punch, and muscle defects were dissected to isolate the quadriceps. Samples were minced with scissors and subjected to two serial digestions with collagenase XI (1 mg ml^−1) at 37 °C (two times 20 min for skin, two times 15 min for muscle). After the first digestion, the supernatant was collected and mixed with neutralization buffer (DMEM/F12 with 10% FBS and 5 mM EDTA). The first collection was kept on ice and fresh collagenase XI was added to the undigested tissue for the second digestion. Digestion mixtures were passed through a 70-μm cell strainer and stained with LIVE/DEAD Fixable Aqua dye (Thermo Fisher Scientific, 1:400 dilution in PBS) for 20 min on ice. Cells were incubated with TruStain FcX anti-CD16/32 (10 μg ml^−1; clone 93, BioLegend) diluted in staining buffer (5% FBS and 2 mM EDTA in PBS) for 20 min and subsequently incubated with primary antibodies in staining buffer for a further 30 min on ice. The following anti-mouse antibodies from BioLegend were used: FITC anti-CD11b (clone M1/70, 6.6 μg ml^−1) or BV711 anti-CD11b (clone M1/70, 2 μg ml^−1); PE anti-F4/80 (clone BM8, 4 μg ml^−1); BV421 anti-Ly6G (clone 1A8, 2 μg ml^−1); BV711 anti-Ly6C (clone HK1.4, 1 μg ml^−1) or FITC anti-Ly6C (clone HK1.4, 5 μg ml^−1); PE-Cyanine7 anti-CD206 (clone C068C2, 2.6 μg ml^−1); APC anti-CD206 (clone C068C2, 2 μg ml^−^1); PE-Cyanine7 anti-CD3 (clone 17A2, 4 μg ml^−1); BV711 anti-CD3 (clone 17A2, 4 μg ml^−1);APC anti-CD4 (clone GK1.5, 2 μg ml^−1); BV421 anti-CD8 (clone 53-6.7, 2 μg ml^−1); PE anti-TCR β (clone H57-597, 2 μg ml^−1); APC/Fire 750 anti-TCR γ/δ (clone GL3, 2 μg ml^−1); PE-Cyanine anti-CD11c (clone N418, 2 μg ml^−1); APC/Fire 750 anti-MHC Class II (clone M5/114.15.2, 2 μg ml^−1). Cells were washed once with a large volume of staining buffer before analysis with BD LSR Fortessa X-20 and FlowJo software (BD Biosciences).

[7] = skin wound borders D1 and D3 or muscle defect via fibrin hydrogel, day 3 post-injury

## thrombospondin-1 [TSP-1]
[1]
  efferocytosis of neutrophils by macrophages: greatly enhanced
[2]
  macrophage death: accelerated death
[3]
  neutrophil migration towards CXCL1: inhibition of migration
[4]
  neutrophil death: accelerated death
[5]
  macrophage migration towards CCL2: inhibition of migration
[6]; skin and muscle injuries, day 14 post-injury
  CD206 expression in injured tissue: increase
[6]; [7]
  number of inflammatory monocytes/macrophages (Ly6C^hi) in injured tissue: reduced numbers
  number of monocytes/macrophages in injured tissue: reduced numbers
  number of neutrophils in injured tissue: reduced numbers

Reference: article PMC11023938 (Nature, 2024)
